Key:
[1] = molecular target: human histamine H1 receptor (Homo sapiens, UniProt P35367); assay: In vitro human histamine H1 receptor binding experiment ([3H]pyrilamine); conditions: HEK293A cells stably expressing human histamine H1 receptor, [3H]pyrilamine 3 nmol/L, room temperature 60 minutes
Protocol: Recombinant human histamine H1 receptor plasmid (prepared by Invitrogen) was transfected to HEK293A cells with Lipofectamine 2000 (manufactured by Invitrogen). Cells stably expressing human histamine H1 receptor were screened with Geneticin (manufactured by Invitrogen). The cells were continued to be cultured using a Dulbecco's Modified Eagle Medium containing 10% fetal bovine serum, 0.1 mmol/L MEM Non-Essential Amino Acids Solution, 2 mmol/L L-glutamine and 0.7 mg/mL Geneticin in a 5% CO2 incubator at 37° C. The cells stably expressing human histamine H1 receptor were prepared using 50 mmol/L Tris-HCl (pH 7.5) (hereinafter referred to as buffer) containing 0.1% bovine serum albumin, so as to have a concentration of 3×10^6 cells/mL, to give a cell sample preparation. Fifty microliters of the buffer, 50 μl of a test substance solution at various concentrations, and 50 μL of [^3H]pyrilamine solution (final concentration: 3 nmol/L) were added to each of the wells on the 96-well plate, and stirred, and 100 μL of the cell sample preparation was then added thereto (at a concentration of 3×10^5 cells/well) to initiate the reaction.
The cells were incubated at room temperature for 60 minutes, and then filtered on UniFilter GF/C plate (manufactured by Packard) immersed in 0.5% polyethyleneimine using a cell harvester (IH-110, manufactured by INNOTECH CORPORATION), to stop the reaction, and the plate was washed with the buffer. The plate after washing was sufficiently dried, and 20 μL of a scintillator (MaxiLight, manufactured by Hidex) was added thereto, and count per minute (cpm) was measured with a multi-labeled microplate reader (Plate Chameleo II, manufactured by Hidex). The nonspecific binding was cpm in a case where 30 μmol/L pyrilamine was added. The experiments were carried out at n=3, and at least repeated 3 times.

[2] = system: histamine-induced vascular hyperpermeability reaction; assay: Rat histamine-induced vascular hyperpermeability reaction (in vivo antihistamine action); conditions: SD male rat, oral administration 1 hour before intracutaneous histamine, leaked Evans Blue pigment
Protocol: An SD male rat (SPF) of 180 g in weight was previously fed for one week or more by allowing the rat to take a solid feed and tap water ad libitum, under the environment setting of a temperature of 22° C., humidity of 55% and an artificial illumination of 12 hours a day (light phase 8 am to 8 pm), and the rat was fasted overnight to be used for the experiment. Histamine•dihydrochloride (hereinafter referred to as histamine) and Evans Blue were used by dissolving each in physiological saline upon use. A substance to be tested was dissolved in water for injection or suspended in 0.5% carboxymethyl cellulose sodium, and the rat was orally administered with the solution or suspension (dose volume: 5 mL/kg body weight). After 1 hour from the administration, the physiological saline and the histamine solution were each intracutaneously injected to two locations (20 μg/0.05 ml/location) each on a back part of the rat of which hair was sheared with an electric clipper while anesthetizing with an ether. A 0.5% Evans Blue-containing physiological saline was injected intravenously to the tail of the rat (1 mL/200 g body weight) immediately before the intracutaneous injection of the histamine.
After 30 minutes, the animal was decapitated, and allowed to bleed lethally, and the skin was removed to measure an amount of leaked pigment in the blue-stained portion. The measurement of the amount of leaked pigment was carried out as follows. Skins of the pigment leaking site were cut out at two locations, 1 mL of a 2 mol/L aqueous potassium hydroxide solution was added thereto in a test tube, and the test tube was allowed to stand overnight at 37° C. to dissolve. Thereafter, 6 mL of a 1:3 mixed solution of 0.67 mol/L phosphoric acid and acetone was added to the solution, and the mixture was vigorously shaken for 10 minutes. Thereafter, the mixture was filtered, and the absorbance of the filtrate at 620 nm was measured. The absorbance obtained from the two locations of the sites injected with physiological saline, as blank value, was used for a compensation. The amount of leaked pigment was calculated from the calibration curve of Evans Blue at 620 nm.

cerebral H1 receptor = molecular target: T1, cerebral H1 receptor (Mus musculus, UniProt P70174); assay: Murine cerebral H1 receptor occupying content (ex vivo); assay type: in vivo; conditions: for ED50: ICR male mouse, oral administration, brain excised after 1 hour, 3H-pyrilamine binding in brain homogenate, larger = lower brain transfer, read-out: ID50 (the source's name); for ID50 (mg/kg)/ ED50 (mg/kg): ID50 of cerebral receptor binding test (Table 20) divided by ED50 of vascular hyperpermeability test (Table 19)
T1 construct: the entire brain, except for cerebellum and medulla oblongatae, was rapidly excised; from tissue; host or cells: brain homogenate (without cerebellum and medulla oblongata) of orally dosed ICR male mice
Protocol: A 6-week-old ICR male mouse was previously fed for one week or more by allowing the mouse to take a solid feed and tap water ad libitum, under the environment setting of a temperature of 22° C., humidity of 55% and an artificial illumination of 12 hours a day, and the mouse was fasted overnight to be used for the experiment. A substance to be tested was dissolved with water for injection or suspended in 0.5% carboxymethyl cellulose solution, and the solution or suspension was orally administered to the mouse (dose volume: 0.1 mL/10 g body weight). After 1 hour from the oral administration, the mouse was decapitated, and the entire brain, except for cerebellum and medulla oblongatae, was rapidly excised. The excised brain tissue was homogenized with Polytron (manufactured by Kinematica) in an ice-cooled 50 mmol/L phosphate buffered saline (pH 7.4, 100 mg/1.9 mL).
To a test tube for reaction (TPX-Tube) were added 180 μL of the brain homogenate, and 10 μL of ^3H-pyrilamine solution (final concentration: 2 nmol/L) and 10 μL of a non-labeled pyrilamine solution (final concentration: 200 μmol/L) or a 50 mmol/L phosphate buffered saline, and the mixture was incubated at room temperature for 45 minutes, and 2.0 mL of an ice-cooled, 50 mmol/L phosphate buffered saline was then added thereto to stop the reaction. The reaction mixture was filtered with a GF/B filter (manufactured by […]), and the […] was placed in a vial and dried overnight at 60 degrees. After drying, 10 mL of a scintillator (AL-1, toluene-based, manufactured by DOJINDO LABORATORIES) was added to the product, and the disintegration per minute (dpm) was measured with a liquid scintillation counter (manufactured by Packard, U.S.A., TRI-CARB 2700TR) (5 minutes/vial).

T1 sequence (P70174 whole entry): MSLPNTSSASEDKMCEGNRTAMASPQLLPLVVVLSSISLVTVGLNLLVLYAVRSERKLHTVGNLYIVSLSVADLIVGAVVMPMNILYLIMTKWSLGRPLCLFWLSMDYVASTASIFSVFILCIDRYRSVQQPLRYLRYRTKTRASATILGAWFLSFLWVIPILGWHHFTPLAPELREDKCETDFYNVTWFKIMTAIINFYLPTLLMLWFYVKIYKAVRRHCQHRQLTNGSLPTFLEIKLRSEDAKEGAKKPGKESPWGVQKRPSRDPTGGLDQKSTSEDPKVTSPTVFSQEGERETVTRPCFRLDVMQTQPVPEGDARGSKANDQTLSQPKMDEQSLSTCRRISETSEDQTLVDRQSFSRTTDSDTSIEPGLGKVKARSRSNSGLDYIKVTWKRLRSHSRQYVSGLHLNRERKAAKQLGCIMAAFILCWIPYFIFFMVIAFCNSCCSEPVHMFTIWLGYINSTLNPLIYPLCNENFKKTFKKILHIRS
Chain of human histamine H1 receptor (P35367 whole entry): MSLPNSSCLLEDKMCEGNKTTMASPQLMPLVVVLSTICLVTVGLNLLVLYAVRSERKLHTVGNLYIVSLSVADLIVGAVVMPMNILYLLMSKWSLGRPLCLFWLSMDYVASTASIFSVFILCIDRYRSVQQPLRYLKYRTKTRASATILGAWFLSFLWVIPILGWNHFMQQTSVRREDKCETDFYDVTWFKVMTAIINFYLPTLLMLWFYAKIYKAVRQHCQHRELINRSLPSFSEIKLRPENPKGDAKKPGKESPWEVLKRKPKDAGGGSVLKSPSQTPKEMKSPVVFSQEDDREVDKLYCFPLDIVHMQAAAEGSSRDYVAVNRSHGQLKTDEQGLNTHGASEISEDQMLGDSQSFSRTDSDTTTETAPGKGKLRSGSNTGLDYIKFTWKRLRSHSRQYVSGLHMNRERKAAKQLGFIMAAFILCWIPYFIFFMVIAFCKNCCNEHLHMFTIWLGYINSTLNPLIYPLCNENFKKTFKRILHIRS

CN1CCC(=C2c3ccccc3CCc3cc(C=CC(=O)O)sc32)CC1 [Compound 15, 3-[4-(1-Methylpiperidin-4-ylidene)-9,10-dihydro-4H-3-thiabenzo[f]azulen-2-yl]acrylic acid]
IC50 [1]: 26.8 nM
ED50 [2]: 0.18 mg/kg
ED50 (cerebral H1 receptor): 5.6 mg/kg
ID50 (mg/kg)/ ED50 (mg/kg) (cerebral H1 receptor): 31.1

CN1CCC(=C2c3ccccc3CCc3sc(C(=O)NCCO)cc32)CC1 [Compound 27, N-(2-Hydroxyethyl) [4-(1-methylpiperidin-4-ylidene)-9,10-dihydro-4H-1-thiabenzo[f]azulen-2-yl]carboxamide]
IC50 [1]: 52.8 nM
ED50 [2]: 1.63 mg/kg
ED50 (cerebral H1 receptor): 55.1 mg/kg
ID50 (mg/kg)/ ED50 (mg/kg) (cerebral H1 receptor): 33.8

CN1CCC(=C2c3ccccc3CCc3sc(CNC(N)=O)cc32)CC1 [Compound 49, 2-Ureidomethyl-4-(1-methylpiperidin-4-ylidene)-9,10-dihydro-4H-1-thiabenzo[f]azulene]
IC50 [1]: 32.5 nM
ED50 [2]: ~1 mg/kg
ED50 (cerebral H1 receptor): 33.9 mg/kg
ID50 (mg/kg)/ ED50 (mg/kg) (cerebral H1 receptor): 33.9

CN1CCC(=C2c3ccccc3OCc3cc(CC(=O)O)sc32)CC1.Cl [Compound 58, [4-(1-Methylpiperidin-4-ylidene)-4,10-dihydro-9-oxa-3-thiabenzo[f]azulen-2-yl]acetic acid hydrochloride]
IC50 [1]: 69.3 nM
ED50 [2]: 0.78 mg/kg
ED50 (cerebral H1 receptor): 205 mg/kg
ID50 (mg/kg)/ ED50 (mg/kg) (cerebral H1 receptor): 263.1

COC(=O)Cc1ccc2c(c1)C(=C1CCN(CCO)CC1)c1sccc1CO2.Cl [Compound 118, Methyl {4-[1-(2-hydroxyethyl)piperidin-4-ylidene]-4,10-dihydro-9-oxa-3-thiabenzo[f]azulen-6-yl}acetate hydrochloride]
IC50 [1]: 23.6 nM
ED50 [2]: 0.48 mg/kg
ED50 (cerebral H1 receptor): 24.3 mg/kg
ID50 (mg/kg)/ ED50 (mg/kg) (cerebral H1 receptor): 50.6

CN1CCC(=C2c3cc(CCCC(=O)O)ccc3OCc3ccsc32)CC1 [Compound 124, 4-[4-(1-Methylpiperidin-4-ylidene)-4,10-dihydro-9-oxa-3-thiabenzo[f]azulen-6-yl]butyric acid]
IC50 [1]: 46.7 nM
ED50 [2]: 0.009 mg/kg
ED50 (cerebral H1 receptor): 3.2 mg/kg
ID50 (mg/kg)/ ED50 (mg/kg) (cerebral H1 receptor): 355.6

CCN1CCC(=C2c3cc(CC(=O)OC)ccc3OCc3ccsc32)CC1.Cl [Compound 127, Methyl[4-(1-ethylpiperidin-4-ylidene)-4,10-dihydro-9-oxa-3-thiabenzo[f]azulen-6-yl]acetate hydrochloride]
IC50 [1]: 8.2 nM
ED50 [2]: ~0.1 mg/kg
ED50 (cerebral H1 receptor): 9.84 mg/kg
ID50 (mg/kg)/ ED50 (mg/kg) (cerebral H1 receptor): 98.4

CCCN1CCC(=C2c3cc(CC(=O)OC)ccc3OCc3ccsc32)CC1.Cl [Compound 129, Methyl[4-(1-propylpiperidin-4-ylidene)-4,10-dihydro-9-oxa-3-thiabenzo[f]azulen-6-yl]acetate hydrochloride]
IC50 [1]: 22.7 nM
ED50 [2]: 0.088 mg/kg
ED50 (cerebral H1 receptor): 40.5 mg/kg
ID50 (mg/kg)/ ED50 (mg/kg) (cerebral H1 receptor): 460.2

CCCN1CCC(=C2c3cc(CC(=O)O)ccc3OCc3ccsc32)CC1 [Compound 130, [4-(1-Propylpiperidin-4-ylidene)-4,10-dihydro-9-oxa-3-thiabenzo[f]azulen-6-yl]acetic acid]
IC50 [1]: 78.4 nM
ED50 [2]: 0.044 mg/kg
ED50 (cerebral H1 receptor): 8 mg/kg
ID50 (mg/kg)/ ED50 (mg/kg) (cerebral H1 receptor): 181.8

COC(=O)Cc1ccc2c(c1)C(=C1CCN(C(C)C)CC1)c1sccc1CO2.Cl [Compound 131, Methyl[4-(1-isopropylpiperidin-4-ylidene)-4,10-dihydro-9-oxa-3-thiabenzo[f]azulen-6-yl]acetate hydrochloride]
IC50 [1]: 32.3 nM
ED50 [2]: ~0.1 mg/kg
ED50 (cerebral H1 receptor): 9.2 mg/kg
ID50 (mg/kg)/ ED50 (mg/kg) (cerebral H1 receptor): 92.0

COC(=O)Cc1ccc2c(c1)C(=C1CCN(CCCO)CC1)c1sccc1CO2.Cl [Compound 138, Methyl {4-[1-(3-hydroxypropyl)piperidin-4-ylidene]-4,10-dihydro-9-oxa-3-thiabenzo[f]azulen-6-yl}acetate hydrochloride]
IC50 [1]: 26 nM
ED50 [2]: 0.47 mg/kg
ED50 (cerebral H1 receptor): 65.4 mg/kg
ID50 (mg/kg)/ ED50 (mg/kg) (cerebral H1 receptor): 139.1

CC(OC(=O)Cc1ccc2c(c1)C(=C1CCNCC1)c1sccc1CO2)OC(=O)OC1CCCCC1.Cl (centres unmarked) [Compound 180, 1-Cyclohexyloxycarbonyloxyethyl (4-piperidin-4-ylidene-4,10-dihydro-9-oxa-3-thiabenzo[f]azulen-6-yl)acetate hydrochloride]
ED50 [2]: 1.55 mg/kg
ED50 (cerebral H1 receptor): > 200 mg/kg
ID50 (mg/kg)/ ED50 (mg/kg) (cerebral H1 receptor): >129.0

CC(=O)CCCN1CCC(=C2c3cc(CCCC(=O)O)ccc3OCc3ccsc32)CC1 [Compound 188, 4-{4-[1-(4-Oxopentyl)piperidin-4-ylidene]-4,10-dihydro-9-oxa-3-thiabenzo[f]azulen-6-yl}butyric acid]
ED50 [2]: ~0.3 mg/kg
ED50 (cerebral H1 receptor): 23 mg/kg
ID50 (mg/kg)/ ED50 (mg/kg) (cerebral H1 receptor): 76.7

CN1CCC(=C2c3cc(SC(C)(C)C(=O)O)ccc3OCc3ccsc32)CC1.Cl [Compound 190, 2-Methyl-2-[4-(1-methylpiperidin-4-ylidene)-4,10-dihydro-9-oxa-3-thiabenzo[f]azulen-6-ylsulfanyl]propionic acid hydrochloride]
ED50 [2]: 0.419 mg/kg
ED50 (cerebral H1 receptor): 73.2 mg/kg
ID50 (mg/kg)/ ED50 (mg/kg) (cerebral H1 receptor): 174.7

CC(=O)CCN1CCC(=C2c3cc(CC(=O)O)ccc3OCc3ccsc32)CC1 [Compound 192, {4-[1-(3-Oxobutyl)piperidin-4-ylidene]-4,10-dihydro-9-oxa-3-thiabenzo[f]azulen-6-yl}acetic acid]
ED50 [2]: 0.312 mg/kg
ED50 (cerebral H1 receptor): 63.8 mg/kg
ID50 (mg/kg)/ ED50 (mg/kg) (cerebral H1 receptor): 204.5

CSCCCN1CCC(=C2c3cc(CC(=O)O)ccc3OCc3ccsc32)CC1 [Compound 199, {4-[1-(3-Methylsulfanylpropyl)piperidin-4-ylidene]-4,10-dihydro-9-oxa-3-thiabenzo[f]azulen-6-yl}acetic acid]
ED50 [2]: ~0.01 mg/kg
ED50 (cerebral H1 receptor): 4.5 mg/kg
ID50 (mg/kg)/ ED50 (mg/kg) (cerebral H1 receptor): 450.0

O=C(O)CCc1cc2c(s1)C=Cc1ccccc1C2=C1CCNCC1 [Compound 209, 3-(4-Piperidin-4-ylidene-4H-1-thiabenzo[f]azulen-2-yl)propionic acid]
ED50 [2]: 0.42 mg/kg
ED50 (cerebral H1 receptor): > 200 mg/kg
ID50 (mg/kg)/ ED50 (mg/kg) (cerebral H1 receptor): >476.2

Source: US8377967B2, “Piperidine derivative” (Nippon Zoki Pharmaceutical Co., Ltd., priority 2008, dated 2013)
